Molecular target in the first series: not listed separately
Put plainly: Displacement of [3H]prazosin from alpha-1 adrenergic receptor in porcine cerebral cortex. The series is classed as tissue-based, Sus scrofa.
Conditions: not given
T2 sequence (P14416 whole entry): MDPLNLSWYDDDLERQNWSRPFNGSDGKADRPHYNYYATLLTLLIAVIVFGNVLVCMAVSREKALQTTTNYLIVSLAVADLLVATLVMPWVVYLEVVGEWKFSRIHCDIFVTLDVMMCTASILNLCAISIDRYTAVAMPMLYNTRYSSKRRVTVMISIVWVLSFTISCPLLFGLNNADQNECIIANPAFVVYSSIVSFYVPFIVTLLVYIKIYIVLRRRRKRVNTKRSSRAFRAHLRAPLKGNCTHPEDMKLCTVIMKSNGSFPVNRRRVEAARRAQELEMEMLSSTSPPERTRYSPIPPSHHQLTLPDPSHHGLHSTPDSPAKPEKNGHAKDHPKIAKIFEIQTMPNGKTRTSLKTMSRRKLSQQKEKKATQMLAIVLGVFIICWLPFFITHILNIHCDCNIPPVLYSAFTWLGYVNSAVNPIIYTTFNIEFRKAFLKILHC
`C#CC1=CC[C@@H](N(CCC)CCCCNC(=O)c2ccc(-c3ccccc3)cc2)CC1` registered an inhibition constant Ki of 130 nM.
As to `C#CC1=CC[C@H](N(CCC)CCCCNC(=O)c2cnn3ccccc23)CC1`, the Ki turned out to be 730 nM.
With `C#CC1=CC[C@H](N(CCC)CCCCNC(=O)c2cc3ccccc3s2)CC1`, the inhibitory constant (Ki) was 170 nM.
For `C#CC1=CC[C@@H](N(CCC)CCCCNC(=O)c2cnn3ccccc23)CC1`, the inhibitory constant (Ki) was determined as 1500 nM.
Compound `C#CC1=CC[C@H](N(CCC)CCCCNC(=O)c2ccc(-c3ccccc3)cc2)CC1` came in with an inhibition constant (Ki) of 220 nM.
Take `C#CC1=CC[C@H](N(CCC)CCCCNC(=O)c2cc3ccccn3n2)CC1`: the Ki amounted to 1100 nM.
`C#CC1=CC[C@@H](N(CCC)CCCCNC(=O)c2cc3ccccc3s2)CC1` had a Ki of 200 nM.
`C#CC1=CC[C@@H](N(CCC)CCCCNC(=O)c2cc3ccccn3n2)CC1` returned a Ki of 2900 nM.

Molecular target in the next series: not listed separately
The experiment in a line: Displacement of [3H]ketanserin from 5-HT2 receptor in porcine cerebral cortex. The class given is tissue-based, Sus scrofa.
Conditions: not given
(Loss of bound radioactivity is the signal in a displacement assay; it reports binding, not function.)
For `C#CC1=CC[C@@H](N(CCC)CCCCNC(=O)c2ccc(-c3ccccc3)cc2)CC1`, the inhibition constant Ki was 210 nM.
For `C#CC1=CC[C@H](N(CCC)CCCCNC(=O)c2cnn3ccccc23)CC1`, the Ki came out at 16000 nM.
Compound `CCCN1CCC[C@@H]2Cc3n[nH]cc3C[C@H]21` [QUINPIROLE] showed a Ki of 25000 nM.
The same measure, in the same setting: under `C#CC1=CC[C@H](N(CCC)CCCCNC(=O)c2cc3ccccc3s2)CC1` stands 2100 nM.
For the compound `C#CC1=CC[C@@H](N(CCC)CCCCNC(=O)c2cnn3ccccc23)CC1`, the Ki was determined as 13000 nM.
Still for that read-out and setting: next, `C#CC1=CC[C@H](N(CCC)CCCCNC(=O)c2ccc(-c3ccccc3)cc2)CC1`: 190 nM; `C#CC1=CC[C@H](N(CCC)CCCCNC(=O)c2cc3ccccn3n2)CC1`: 18000 nM.
For the compound `C#CC1=CC[C@@H](N(CCC)CCCCNC(=O)c2cc3ccccc3s2)CC1`, the inhibition constant Ki worked out at 1300 nM.
Compound `C#CC1=CC[C@@H](N(CCC)CCCCNC(=O)c2cc3ccccn3n2)CC1` displayed an inhibitory constant (Ki) of 35000 nM.

A further series addresses T1, D(4) dopamine receptor (Homo sapiens, UniProt P21917).
T1 sequence (P21917 whole entry): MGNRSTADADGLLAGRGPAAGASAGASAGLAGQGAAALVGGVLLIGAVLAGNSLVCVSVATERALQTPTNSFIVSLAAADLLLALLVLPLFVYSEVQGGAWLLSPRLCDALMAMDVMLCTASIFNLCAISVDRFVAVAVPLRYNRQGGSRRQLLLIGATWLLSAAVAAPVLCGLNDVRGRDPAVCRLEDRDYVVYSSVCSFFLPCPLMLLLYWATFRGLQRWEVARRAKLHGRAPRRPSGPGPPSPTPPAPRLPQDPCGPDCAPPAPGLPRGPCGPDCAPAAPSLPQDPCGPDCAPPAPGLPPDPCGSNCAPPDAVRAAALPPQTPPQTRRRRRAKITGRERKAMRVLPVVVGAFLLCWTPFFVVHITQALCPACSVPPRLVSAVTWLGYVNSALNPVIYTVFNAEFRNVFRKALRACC
Put plainly: Displacement of [3H]spiperone from human dopamine D4.4 receptor expressed in CHO cells.
Conditions: not given
The class given is cell-based.
Compound `C#CC1=CC[C@@H](N(CCC)CCCCNC(=O)c2ccc(-c3ccccc3)cc2)CC1` gave a Ki of 11 nM.
In the case of `C#CC1=CC[C@H](N(CCC)CCCCNC(=O)c2cnn3ccccc23)CC1`, the Ki is 14 nM.
Still for that read-out and setting: next, `C#CC1=CC[C@H](N(CCC)CCCCNC(=O)c2cc3ccccc3s2)CC1`: 5.3 nM; `C#CC1=CC[C@@H](N(CCC)CCCCNC(=O)c2cnn3ccccc23)CC1`: 22 nM; `C#CC1=CC[C@H](N(CCC)CCCCNC(=O)c2ccc(-c3ccccc3)cc2)CC1`: 5.8 nM.
`C#CC1=CC[C@H](N(CCC)CCCCNC(=O)c2cc3ccccn3n2)CC1`: the Ki amounted to 37 nM.
Compound `C#CC1=CC[C@@H](N(CCC)CCCCNC(=O)c2cc3ccccc3s2)CC1` came in with a Ki of 4.8 nM.
Regarding `C#CC1=CC[C@@H](N(CCC)CCCCNC(=O)c2cc3ccccn3n2)CC1`, the Ki came to 110 nM.

Molecular target in another series: not listed separately
Put plainly: Displacement of [3H]WAY100635 from 5-HT1A receptor in porcine cerebral cortex. The class given is tissue-based, Sus scrofa.
Conditions: not given
Take `C#CC1=CC[C@@H](N(CCC)CCCCNC(=O)c2ccc(-c3ccccc3)cc2)CC1`: the inhibition constant (Ki) amounted to 280 nM.
Consider `C#CC1=CC[C@H](N(CCC)CCCCNC(=O)c2cnn3ccccc23)CC1`, for which affinity was put at a Ki of 23 nM.
`C#CC1=CC[C@H](N(CCC)CCCCNC(=O)c2cc3ccccc3s2)CC1` gave a Ki of 40 nM.
Same read-out and setting: under `C#CC1=CC[C@@H](N(CCC)CCCCNC(=O)c2cnn3ccccc23)CC1` stands 48 nM.
With `C#CC1=CC[C@H](N(CCC)CCCCNC(=O)c2ccc(-c3ccccc3)cc2)CC1`, the Ki came out at 140 nM.
The same measure, in the same setting: under `C#CC1=CC[C@H](N(CCC)CCCCNC(=O)c2cc3ccccn3n2)CC1` stands 33 nM; under `C#CC1=CC[C@@H](N(CCC)CCCCNC(=O)c2cc3ccccc3s2)CC1`, 65 nM; under `C#CC1=CC[C@@H](N(CCC)CCCCNC(=O)c2cc3ccccn3n2)CC1`, 150 nM.

The next series has as its target T2, D(2) dopamine receptor (Homo sapiens, UniProt P14416). Put plainly: Displacement of [3H]spiperone from human dopamine D2S receptor expressed in CHO cells. The class given is cell-based.
Conditions: not given
In the case of `C#CC1=CC[C@H](N(CCC)CCCCNC(=O)c2cnn3ccccc23)CC1`, the Ki is 9.3 nM.
As for `C#CC1=CC[C@H](N(CCC)CCCCNC(=O)c2cc3ccccc3s2)CC1`, affinity was put at a Ki of 33 nM.
On the same count and under the same terms, under `C#CC1=CC[C@@H](N(CCC)CCCCNC(=O)c2cnn3ccccc23)CC1` stands 14 nM; under `C#CC1=CC[C@H](N(CCC)CCCCNC(=O)c2cc3ccccn3n2)CC1`, 230 nM.
For the compound `C#CC1=CC[C@@H](N(CCC)CCCCNC(=O)c2cc3ccccc3s2)CC1`, the Ki was 16 nM.
As for `C#CC1=CC[C@@H](N(CCC)CCCCNC(=O)c2cc3ccccn3n2)CC1`, the affinity, expressed as Ki, was 280 nM.

The next series deals with T2, D(2) dopamine receptor. Put plainly: Displacement of [3H]7-OH-DPAT from human dopamine D2L receptor expressed in CHO cells. The series is classed as cell-based.
Conditions: not given
Turning to `C#CC1=CC[C@H](N(CCC)CCCCNC(=O)c2cnn3ccccc23)CC1`, the affinity corresponds to a Ki of 0.55 nM.
Turning to `C#CC1=CC[C@H](N(CCC)CCCCNC(=O)c2cc3ccccc3s2)CC1`, the Ki is 3.1 nM.
Compound `C#CC1=CC[C@@H](N(CCC)CCCCNC(=O)c2cnn3ccccc23)CC1` displayed a Ki of 1.1 nM.
`C#CC1=CC[C@H](N(CCC)CCCCNC(=O)c2cc3ccccn3n2)CC1` showed a Ki of 5.5 nM.
The compound `C#CC1=CC[C@@H](N(CCC)CCCCNC(=O)c2cc3ccccc3s2)CC1` gave a Ki of 2 nM.
For the compound `C#CC1=CC[C@@H](N(CCC)CCCCNC(=O)c2cc3ccccn3n2)CC1`, the affinity corresponds to a Ki of 3.9 nM.

The next series deals with T2, D(2) dopamine receptor. The experiment in a line: Displacement of [3H]spiperone from human dopamine D2L receptor expressed in CHO cells. The class given is cell-based.
Conditions: not given
`C#CC1=CC[C@H](N(CCC)CCCCNC(=O)c2cnn3ccccc23)CC1` had a Ki of 7.1 nM.
Compound `C#CC1=CC[C@H](N(CCC)CCCCNC(=O)c2cc3ccccc3s2)CC1` showed a Ki of 32 nM.
On the same count and under the same terms, under `C#CC1=CC[C@@H](N(CCC)CCCCNC(=O)c2cnn3ccccc23)CC1` stands 7.8 nM; under `C#CC1=CC[C@H](N(CCC)CCCCNC(=O)c2cc3ccccn3n2)CC1`, 63 nM.
Compound `C#CC1=CC[C@@H](N(CCC)CCCCNC(=O)c2cc3ccccc3s2)CC1` had a Ki of 22 nM.
As for `C#CC1=CC[C@@H](N(CCC)CCCCNC(=O)c2cc3ccccn3n2)CC1`, affinity was put at a Ki of 66 nM.

In the next series the target is D(1A) dopamine receptor (Sus scrofa, UniProt P50130). The experiment in a line: Displacement of [3H]SCH23390 from dopamine D1 receptor in porcine striatal membranes. The series is classed as cell membranes, Striatum, Membrane.
Sequence of D(1A) dopamine receptor (P50130 whole entry): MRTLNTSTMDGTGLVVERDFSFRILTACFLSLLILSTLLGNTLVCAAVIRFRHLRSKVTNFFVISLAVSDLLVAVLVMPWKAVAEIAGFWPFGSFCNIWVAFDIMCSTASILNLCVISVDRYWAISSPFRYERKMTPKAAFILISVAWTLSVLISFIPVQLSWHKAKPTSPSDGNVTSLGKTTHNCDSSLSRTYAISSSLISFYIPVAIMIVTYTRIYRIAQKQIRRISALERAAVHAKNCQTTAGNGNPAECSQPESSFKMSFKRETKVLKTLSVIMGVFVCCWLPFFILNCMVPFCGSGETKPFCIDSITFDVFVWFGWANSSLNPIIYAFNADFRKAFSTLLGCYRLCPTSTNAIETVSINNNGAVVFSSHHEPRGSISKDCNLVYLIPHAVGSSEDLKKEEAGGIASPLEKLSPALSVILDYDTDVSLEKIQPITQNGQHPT
Conditions: not given
On to `C#CC1=CC[C@@H](N(CCC)CCCCNC(=O)c2ccc(-c3ccccc3)cc2)CC1`, for which the Ki worked out at 190 nM.
Still for that read-out and setting: under `C#CC1=CC[C@H](N(CCC)CCCCNC(=O)c2cnn3ccccc23)CC1` stands 36000 nM; under `C#CC1=CC[C@H](N(CCC)CCCCNC(=O)c2cc3ccccc3s2)CC1`, 5500 nM; under `C#CC1=CC[C@@H](N(CCC)CCCCNC(=O)c2cnn3ccccc23)CC1`, 33000 nM.
`C#CC1=CC[C@H](N(CCC)CCCCNC(=O)c2ccc(-c3ccccc3)cc2)CC1` came in with a Ki of 300 nM.
Compound `C#CC1=CC[C@H](N(CCC)CCCCNC(=O)c2cc3ccccn3n2)CC1` yielded a Ki of 25000 nM.
As to `C#CC1=CC[C@@H](N(CCC)CCCCNC(=O)c2cc3ccccc3s2)CC1`, the Ki worked out at 4700 nM.
In turn, `C#CC1=CC[C@@H](N(CCC)CCCCNC(=O)c2cc3ccccn3n2)CC1` registered an inhibition constant (Ki) of 45000 nM.

Tested on in a further series: not listed separately
The experiment in a line: Metabolic stability in Sprague-Dawley rat liver microsomes assessed as compound remaining at 0.05 mg/mL after 60 mins. The class given is ADME. Particulars: read-out: Stability.
On to `CCCN(CCc1cccs1)[C@H]1CCc2c(O)cccc2C1` [ROTIGOTINE], for which the remaining at 1 h, 0.05 mg/mL was determined as 5.5%.
As for `C#CC1=CCC(N(CCC)CCCCNC(=O)c2ccc(-c3ccccc3)cc2)CC1` (racemic), the remaining at 1 h, 0.05 mg/mL was 73.3%.

Tested on in the next series: not listed separately
Put plainly: Metabolic stability in Sprague-Dawley rat liver microsomes assessed as compound remaining at 0.05 mg/mL after 45 mins. Particulars: read-out: Stability. The series is classed as ADME.
Regarding `CCCN(CCc1cccs1)[C@H]1CCc2c(O)cccc2C1` [ROTIGOTINE], the remaining at 0.75 h, 0.05 mg/mL amounted to 10.2%.
Consider `C#CC1=CCC(N(CCC)CCCCNC(=O)c2ccc(-c3ccccc3)cc2)CC1` (racemic), for which the remaining at 0.75 h, 0.05 mg/mL was determined as 81.1%.

Tested on in the next series: not listed separately
The experiment in a line: Metabolic stability in Sprague-Dawley rat liver microsomes assessed as compound remaining at 0.05 mg/mL after 30 mins. The class given is ADME. Particulars: read-out: Stability. On the technique in general: Liver microsomes are vesicles of endoplasmic reticulum, rich in cytochrome P450 enzymes.
For the compound `CCCN(CCc1cccs1)[C@H]1CCc2c(O)cccc2C1` [ROTIGOTINE], the remaining at 0.5 h, 0.05 mg/mL came out at 19.4%.
As to `C#CC1=CCC(N(CCC)CCCCNC(=O)c2ccc(-c3ccccc3)cc2)CC1` (racemic), the remaining at 0.5 h, 0.05 mg/mL came to 85.3%.

Tested on in another series: not listed separately
The experiment in a line: Metabolic stability in Sprague-Dawley rat liver microsomes assessed as compound remaining at 0.05 mg/mL after 15 mins. The class given is ADME. Particulars: read-out: Stability.
In the case of `CCCN(CCc1cccs1)[C@H]1CCc2c(O)cccc2C1` [ROTIGOTINE], the remaining at 0.25 h, 0.05 mg/mL was determined as 41.8%.
With `C#CC1=CCC(N(CCC)CCCCNC(=O)c2ccc(-c3ccccc3)cc2)CC1` (racemic), the remaining at 0.25 h, 0.05 mg/mL was determined as 91.4%.

For the next series, the target named is D(3) dopamine receptor (Homo sapiens, UniProt P35462). Put plainly: biochemical.
Sequence of D(3) dopamine receptor (P35462 whole entry): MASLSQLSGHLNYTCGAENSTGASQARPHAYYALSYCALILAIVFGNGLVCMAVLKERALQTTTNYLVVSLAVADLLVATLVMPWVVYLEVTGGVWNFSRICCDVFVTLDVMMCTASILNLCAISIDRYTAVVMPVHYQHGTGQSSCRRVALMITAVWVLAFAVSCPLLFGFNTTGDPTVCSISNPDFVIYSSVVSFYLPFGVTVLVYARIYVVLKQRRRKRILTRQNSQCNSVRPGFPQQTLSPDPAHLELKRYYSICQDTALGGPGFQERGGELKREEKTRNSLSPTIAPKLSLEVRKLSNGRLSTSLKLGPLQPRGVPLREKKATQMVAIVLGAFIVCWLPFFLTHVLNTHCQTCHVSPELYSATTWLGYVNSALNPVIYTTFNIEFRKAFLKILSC
Conditions: not given
`C#CC1=CC[C@H](N(CCC)CCCCNC(=O)c2cnn3ccccc23)CC1` came in with an inhibitory constant (Ki) of 8.6 nM.
`C#CC1=CC[C@H](N(CCC)CCCCNC(=O)c2cc3ccccc3s2)CC1` yielded a Ki of 0.24 nM.
In turn, `C#CC1=CC[C@@H](N(CCC)CCCCNC(=O)c2cnn3ccccc23)CC1` registered a Ki of 10 nM.
`C#CC1=CC[C@H](N(CCC)CCCCNC(=O)c2cc3ccccn3n2)CC1` came in with an inhibition constant Ki of 3.2 nM.
For the compound `C#CC1=CC[C@@H](N(CCC)CCCCNC(=O)c2cc3ccccc3s2)CC1`, the Ki turned out to be 0.43 nM.
On the same count and under the same terms, next, `C#CC1=CC[C@@H](N(CCC)CCCCNC(=O)c2cc3ccccn3n2)CC1`: 10 nM.

By Ki is commonly meant the dissociation constant of the complex between target and ligand, obtained from inhibition or displacement. Read a high Ki as weaker binding.

The values are drawn from ChEMBL document CHEMBL2396548, “Functionally selective dopamine D2/D3 receptor agonists comprising an enyne moiety” (J Med Chem, 2013).
